Measurements as given in patent US7396837B2, “Antitumoral analogs of lamellarins” (Pharma Mar, S.A.U., priority 2002, dated 2008).
Where two headings read alike, the source gives them in different places.

Assays:
Type in all cases: cell-based
SKOV-3 = test: SRB colorimetric cell growth inhibition assay, SKOV-3; details: Homo sapiens; for GI50: SK-OV-3, SKOV-3, GI=growth inhibition, read-out: GI50 SKOV-3; for IC (TGI): TGI=total growth inhibition (cytostatic effect), read-out: TGI SKOV-3
From the text: Inhibition of Cell Growth by Colorimetric Assay.
A colorimetric type of assay, using sulforhodamine B (SRB) reaction has been adapted for a quantitative measurement of cell growth and viability (following the technique described by P. A. Skehan, et al., J. Natl. Cancer Inst. 1990, 82, 1107-1112).
This form of assay employs 96 well cell culture microplates of 9 mm diameter (T. Mosmann et al., J. of Immunological Methods 1983, 65, 55-63; G. T. Faircloth et al., J. of Tissue and Culture Methods 1988, 11, 201-205).
Most of the cell lines are obtained from American Type Culture Collection (ATCC) derived from different human cancer types.
The values for mean +/− SD of data from triplicate wells are calculated. Some parameters for cellular responses can be calculated: GI=growth inhibition, TGI=total growth inhibition (cytostatic effect) and LC=cell killing (cytotoxic effect).

IGROV = test: SRB colorimetric cell growth inhibition assay, IGROV; details: Homo sapiens, IGROV; for GI50: GI=growth inhibition, read-out: GI50 IGROV; for CC50: LC=cell killing (cytotoxic effect), read-out: LC50 IGROV; for IC (TGI): TGI=total growth inhibition (cytostatic effect), read-out: TGI IGROV
Procedure, shortened: (§1)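 Human tumour cells were exposed continuously to the test sample, and growth and viability were quantified by sulforhodamine B staining. Means ± SD came from triplicate wells, and GI, TGI (cytostatic) and LC (cell killing) parameters were derived.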

DU-145 = test: SRB colorimetric cell growth inhibition assay, DU-145; details: Homo sapiens, DU-145, DU-145; for GI50: GI=growth inhibition, read-out: GI50 DU-145; for CC50: LC=cell killing (cytotoxic effect), read-out: LC50 DU-145; for IC (TGI): TGI=total growth inhibition (cytostatic effect), read-out: TGI DU-145
Procedure, shortened: as §1

K-562 = test: SRB colorimetric cell growth inhibition assay, K-562; details: Homo sapiens, K562, K-562; for GI50: GI=growth inhibition, read-out: GI50 K-562; for CC50: LC=cell killing (cytotoxic effect), read-out: LC50 K-562; for IC (TGI): TGI=total growth inhibition (cytostatic effect), read-out: TGI K-562
Procedure, shortened: as §1

SK-BR-3 = test: SRB colorimetric cell growth inhibition assay, SK-BR-3; details: Homo sapiens, SK-BR-3, SK-BR-3; for GI50: GI=growth inhibition, read-out: GI50 SK-BR-3; for CC50: LC=cell killing (cytotoxic effect), read-out: LC50 SK-BR-3; for IC (TGI): TGI=total growth inhibition (cytostatic effect), read-out: TGI SK-BR-3
Procedure, shortened: as §1

HT-29 = test: SRB colorimetric cell growth inhibition assay, HT-29; details: Homo sapiens; for GI50: GI=growth inhibition, read-out: GI50 HT-29; for CC50: LC=cell killing (cytotoxic effect), read-out: LC50 HT-29; for IC (TGI): TGI=total growth inhibition (cytostatic effect), read-out: TGI HT-29
Procedure, shortened: as §1

LoVo-Dox = test: SRB colorimetric cell growth inhibition assay, LoVo-Dox (MDR); details: Homo sapiens, LOVO-DOX; for GI50: GI=growth inhibition, read-out: GI50 LOVO-DOX; for CC50: LC=cell killing (cytotoxic effect), read-out: LC50 LOVO-DOX; for IC (TGI): TGI=total growth inhibition (cytostatic effect), read-out: TGI LOVO-DOX
Procedure, shortened: as §1

IGROV-ET = test: SRB colorimetric cell growth inhibition assay, IGROV-ET (ET-743 resistant); details: Homo sapiens, IGROV-ET; for GI50: GI=growth inhibition, read-out: GI50 IGROV-ET; for CC50: LC=cell killing (cytotoxic effect), read-out: LC50 IGROV-ET; for IC (TGI): TGI=total growth inhibition (cytostatic effect), read-out: TGI IGROV-ET
Procedure, shortened: as §1

PANC-1 = test: SRB colorimetric cell growth inhibition assay, PANC-1; details: Homo sapiens, PANC-1, PANC-1; for GI50: GI=growth inhibition, read-out: GI50 PANC-1; for CC50: LC=cell killing (cytotoxic effect), read-out: LC50 PANC-1; for IC (TGI): TGI=total growth inhibition (cytostatic effect), read-out: TGI PANC-1
Procedure, shortened: as §1

SK-MEL-28 = test: SRB colorimetric cell growth inhibition assay, SK-MEL-28
Procedure, shortened: as §1

LNCaP = test: SRB colorimetric cell growth inhibition assay, LNCaP; details: Homo sapiens, LNCaP, LN-caP; for GI50: GI=growth inhibition, read-out: GI50 LN-caP; for CC50: LC=cell killing (cytotoxic effect), read-out: LC50 LN-caP; for IC (TGI): TGI=total growth inhibition (cytostatic effect), read-out: TGI LN-caP
Procedure, shortened: as §1

LoVo = test: SRB colorimetric cell growth inhibition assay, LoVo; details: Homo sapiens, LoVo; for GI50: GI=growth inhibition, read-out: GI50 LOVO; for CC50: LC=cell killing (cytotoxic effect), read-out: LC50 LOVO; for IC (TGI): TGI=total growth inhibition (cytostatic effect), read-out: TGI LOVO
Procedure, shortened: as §1

A-549 = test: SRB colorimetric cell growth inhibition assay, A-549; details: Homo sapiens, A549, A-549; for GI50: GI=growth inhibition, read-out: GI50 A-549; for CC50: LC=cell killing (cytotoxic effect), read-out: LC50 A-549; for IC (TGI): TGI=total growth inhibition (cytostatic effect), read-out: TGI A-549
Procedure, shortened: as §1

[1] = SK-OV-3, SKOV-3, LC=cell killing (cytotoxic effect), read-out: LC50 SKOV-3
[2] = Homo sapiens, SK-MEL-28, MEL-28; GI=growth inhibition; read-out: GI50 MEL-28
[3] = Homo sapiens, SK-MEL-28, MEL-28; LC=cell killing (cytotoxic effect); read-out: LC50 MEL-28
[4] = Homo sapiens, SK-MEL-28, MEL-28; TGI=total growth inhibition (cytostatic effect); read-out: TGI MEL-28

COc1cc(-c2c3c4cc(OC)c(OC(=O)[C@H](C)NC(=O)OC(C)(C)C)cc4oc(=O)c3n3ccc4cc(OC(=O)[C@H](C)NC(=O)OC(C)(C)C)c(OC)cc4c23)ccc1OC(=O)[C@H](C)NC(=O)OC(C)(C)C [Compound 41]
GI50 (SKOV-3): 5.95 µM | CC50 (SKOV-3; [1]): 9.87 µM | IC (TGI) (SKOV-3; SK-OV-3, SKOV-3): 9.87 µM | GI50 (IGROV): 0.0917 µM | CC50 (IGROV): 4.7 µM | IC (TGI) (IGROV): 0.492 µM | GI50 (DU-145): 0.679 µM | CC50 (DU-145): 9.87 µM | IC (TGI) (DU-145): 9.87 µM | GI50 (K-562): 1.77 µM | CC50 (K-562): 8.02 µM | IC (TGI) (K-562): 3.76 µM | GI50 (SK-BR-3): 1.62 µM | CC50 (SK-BR-3): 9.87 µM | IC (TGI) (SK-BR-3): 4.85 µM | GI50 (HT-29; HT-29, HT-29): 3.24 µM | CC50 (HT-29; HT-29, HT-29): 9.87 µM | IC (TGI) (HT-29; HT-29, HT-29): 8.89 µM | GI50 (LoVo-Dox): 4.2 µM | CC50 (LoVo-Dox): 9.87 µM | IC (TGI) (LoVo-Dox): 9.87 µM | GI50 (IGROV-ET): 0.188 µM | CC50 (IGROV-ET): 9.87 µM | IC (TGI) (IGROV-ET): 0.852 µM | GI50 (PANC-1): 2.48 µM | CC50 (PANC-1): 9.87 µM | IC (TGI) (PANC-1): 9.87 µM | GI50 (SK-MEL-28; [2]): 1.86 µM | CC50 (SK-MEL-28; [3]): 9.43 µM | IC (TGI) (SK-MEL-28; [4]): 4.19 µM | GI50 (LNCaP): 2.1 µM | CC50 (LNCaP): 9.87 µM | IC (TGI) (LNCaP): 6.47 µM | GI50 (LoVo): 3.31 µM | CC50 (LoVo): 9.87 µM | IC (TGI) (LoVo): 9.87 µM | GI50 (A-549): 2.42 µM | CC50 (A-549): 9.87 µM | IC (TGI) (A-549): 8.01 µM

COc1cc(-c2c3n(c4c(=O)oc5cc(OC(=O)[C@H](C)N)c(OC)cc5c24)CCc2cc(OC(=O)[C@H](C)N)c(OC)cc2-3)ccc1OC(=O)[C@H](C)N [Compound 42]
GI50 (SKOV-3): 1.24 µM | CC50 (SKOV-3; [1]): 9.46 µM | IC (TGI) (SKOV-3; SK-OV-3, SKOV-3): 4.44 µM | GI50 (IGROV): 0.185 µM | CC50 (IGROV): 2.83 µM | IC (TGI) (IGROV): 0.56 µM | GI50 (DU-145): 0.365 µM | CC50 (DU-145): 9.46 µM | IC (TGI) (DU-145): 2.28 µM | GI50 (K-562): 0.313 µM | CC50 (K-562): 5.42 µM | IC (TGI) (K-562): 1.79 µM | GI50 (SK-BR-3): 2 µM | CC50 (SK-BR-3): 8.04 µM | IC (TGI) (SK-BR-3): 4.01 µM | GI50 (HT-29; HT-29, HT-29): 3.91 µM | CC50 (HT-29; HT-29, HT-29): 9.46 µM | IC (TGI) (HT-29; HT-29, HT-29): 9.46 µM | GI50 (LoVo-Dox): 0.395 µM | CC50 (LoVo-Dox): 9.46 µM | IC (TGI) (LoVo-Dox): 2.32 µM | GI50 (IGROV-ET): 0.238 µM | CC50 (IGROV-ET): 6.62 µM | IC (TGI) (IGROV-ET): 0.678 µM | GI50 (PANC-1): 0.732 µM | CC50 (PANC-1): 9.46 µM | IC (TGI) (PANC-1): 4.06 µM | GI50 (SK-MEL-28; [2]): 1.23 µM | CC50 (SK-MEL-28; [3]): 8.94 µM | IC (TGI) (SK-MEL-28; [4]): 3.32 µM | GI50 (LNCaP): 0.377 µM | CC50 (LNCaP): 4.91 µM | IC (TGI) (LNCaP): 1.41 µM | GI50 (LoVo): 0.463 µM | CC50 (LoVo): 9.46 µM | IC (TGI) (LoVo): 3.63 µM | GI50 (A-549): 0.735 µM | CC50 (A-549): 9.46 µM | IC (TGI) (A-549): 2.99 µM

COc1cc(-c2c3c4cc(OC)c(OC(=O)[C@@H](N)CC(C)C)cc4oc(=O)c3n3ccc4c(OC(=O)[C@@H](N)CC(C)C)c(OC)c(OC)cc4c23)ccc1OC(=O)[C@@H](N)CC(C)C [Compound 45]
GI50 (SKOV-3): 0.175 µM | CC50 (SKOV-3; SK-OV-3, read-out: LC50 SKOV-3): 11.5 µM | IC (TGI) (SKOV-3; SK-OV-3, SKOV-3): 2.2 µM | GI50 (IGROV): 1.57 µM | CC50 (IGROV): 10.9 µM | IC (TGI) (IGROV): 4.12 µM | GI50 (DU-145): 0.105 µM | CC50 (DU-145): 11.5 µM | IC (TGI) (DU-145): 0.549 µM | GI50 (K-562): 0.315 µM | CC50 (K-562): 8.79 µM | IC (TGI) (K-562): 1.73 µM | GI50 (SK-BR-3): 0.414 µM | CC50 (SK-BR-3): 11.5 µM | IC (TGI) (SK-BR-3): 1.58 µM | CC50 (HT-29; HT-29, HT-29): 11.5 µM | GI50 (HT-29; HT-29): 11.5 µM | IC (TGI) (HT-29; HT-29): 11.5 µM | GI50 (LoVo-Dox): 0.778 µM | CC50 (LoVo-Dox): 11.5 µM | IC (TGI) (LoVo-Dox): 4.51 µM | GI50 (IGROV-ET): 2.58 µM | CC50 (IGROV-ET): 11.5 µM | IC (TGI) (IGROV-ET): 8.07 µM | GI50 (PANC-1): 2.03 µM | CC50 (PANC-1): 11.5 µM | IC (TGI) (PANC-1): 9.75 µM | GI50 (SK-MEL-28; [2]): 0.898 µM | CC50 (SK-MEL-28; [3]): 11.5 µM | IC (TGI) (SK-MEL-28; Homo sapiens, SK-MEL-28; MEL-28; TGI=total growth inhibition (cytostatic effect); read-out: TGI MEL-28): 11.5 µM | GI50 (LoVo): 0.771 µM | CC50 (LoVo): 11.5 µM | IC (TGI) (LoVo): 6.71 µM | GI50 (A-549): 4.35 µM | CC50 (A-549): 11.5 µM | IC (TGI) (A-549): 11.5 µM
